# “Also recorded” adds a separate entry of the source.
# Columns and labels:
# ORF 65 (lytic gene) = assay: RT-PCR of late (lytic) gene ORF 65 in PMA-induced KSHV-infected DMVEC; format: cell-based; details: for late gene (ORF 65) expression: compound 1 hour before PMA, 48 hours, concentration not given
# Method: (§1) KSHV genes ORF 64 and K12 (kaposin) were used as reverse transcriptase PCR (RT-PCR) templates as described previously^(43). ORF 65 sequences were amplified with primers 5-[…] (SEQ ID NO: 5) and 5′-[…] (SEQ ID NO: 6). Cellular genes (HPRT, GAPDH, or -actin) were amplified from each sample as a control for cDNA synthesis. PCR products were visualized following electrophoresis on agarose-ethidium bromide gels.
# (§2) Cells were treated with inhibitory compounds or peptides for one hour and lytic replication was induced by PMA treatment for 48 hours. Ganciclovir was used as control compound for inhibition of KSHV-replication and late gene expression^(10). After 48 hours, cells were harvested and expression of the latent gene K12 as well as the late gene ORF 65 was analyzed by RT-PCR. For control, expression of cellular genes α-actin or HPRT was monitored. […] However, both Ht31 and Haloperidol inhibited late gene expression, but not latent gene expression. Since both inhibitors potentially interfere with PKC signaling, we examined whether Ht31 or Haloperidol would inhibit the PMA-mediated induction of immediate early genes. […] In addition, the peptide Ht-31 inhibits the association between A kinase anchoring proteins (AKAPs) and PKA (21, 64). […] Therefore we conclude that the signal transduction pathways regulated by the type I sigma receptor and AKAPs are required for lytic progression of KSHV.
# There is no specific inhibitor of Gravin identified, however the Ht-31 peptide derived from the PKA R-II binding domain of the human thyroid AKAP inhibits the AKAP/PKA interactions in vivo and in vitro ^(21, 64). A stearated version of this peptide is membrane permeable and can block the AKAP/PKA interaction in tissue culture. A requirement for PKA signaling can be inferred from the up-regulation of Gravin, and to further investigate the requirement for the AKAP/PKA interaction for KSHV late gene expression, infected and uninfected cells were treated with stearated Ht-31 at two concentrations (FIG. 7B). […] A stearated control peptide that is unable to interact with PKA, Ht-31P, had no effect on late gene expression (FIG. 7B, lanes 4-5). […] It is not possible to conclude whether the inhibitory effect of Ht-3 1 occurs through Gravin or any other AKAP, since Ht-31 inhibits a wide range of AKAP/PKA interactions.
# (§3) The type I Sigma receptor is antagonized by the antipsychotic drug Haloperidol^(66). To investigate the requirement of Sigma receptor function for late gene expression, cells were treated with 5 μM Haloperidol for 1 hour prior to PMA addition. […] The inhibition of late gene expression was more complete with Haloperidol than with Ganciclovir (FIG. 7D, lanes 5-6). In contrast, the purine […] phosphorylase inhibitor 8-aminoguanosine (8-AMG) had no effect on viral gene expression (FIG. 7D, lane 4).
# K12 (latent gene) = assay: RT-PCR of latent gene K12 in PMA-induced KSHV-infected DMVEC; format: cell-based
# Method: as §1, §2, §3
# Epstein-Barr Virus (EBV) = details: cited from earlier work
# immediate early gene K3 = assay: PMA-mediated induction of immediate early gene K3; format: cell-based, KSHV
# KSHV-infected DMVEC [1] = assay: Transformation assay (focus formation, disorganized growth) in post-confluent culture; format: cell-based, human
# Method: (§4) To promote a transformed phenotype, KSHV-infected DMVEC were cultured post-confluency in 35 mm Primaria culture dishes. […] Cells were examined daily for evidence of phenotypic change using a phase-contrast microscope and results recorded photographically.
# (§5) To directly test whether KSHV-induction of c-Kit is necessary for virus-induced transformation, the consequence of inhibiting c-Kit signaling in KSHV-transformed DMVEC was evaluated.
# In this approach, a dominant negative c-Kit protein lacking the cytoplasmic ATP-binding and phosphotransferase domains necessary for c-Kit signaling (Ad/c-KitDN) was expressed in KSHV-infected cells using the adenovirus delivery system outlined above.
# KSHV-infected DMVEC [2] = assay: XTT-based proliferation assay, response to exogenous SCF; format: cell-based, human
# Method: (§6) Proliferation of mock and KSHV-infected DMVEC, and the SCLC line HTB-172, was quantitated using an XTT-based assay. Cells were added to Primaria 96 well trays (Becton-Dickinson) at 1×104 or 5×10^4 cells/well. […] XTT (Roche, Molecular Biochemicals, Indianapolis, Ind.) was added 48 hours later according to the manufacturers instructions. Absorbance was read after 4 to 6 hours on a microplate reader. The HTB-172 line was obtained from the American Type Culture Collection (ATCC, Rockville, Md.).
# Mock- and KSHV-infected DMVEC were cultured in growth factor depleted medium in the absence and presence of recombinant SCF and proliferation was measured using an XTT-based dye reduction assay^(112).
# Uninfected DMVEC = test system: Uninfected DMVEC
# Method: as §4, §5
# SCLC cell lines = details: via inhibition of c-Kit activity; cited from earlier work
# human Jurkat T cell line = assay: Proliferation of Jurkat T cell line in response to exogenous IL-2; format: cell-based
# mock-infected DMVEC = assay: XTT-based proliferation assay, response to exogenous SCF; format: cell-based, human
# Method: as §6
# To examine whether KSHV-induced up-regulation of c-Kit had functional consequences, we tested whether the mitogenic response of DMVEC to exogenous SCF was enhanced following KSHV infection. Mock- and KSHV-infected DMVEC were cultured in growth factor depleted medium in the absence and presence of recombinant SCF and proliferation was measured using an XTT-based dye reduction assay^(112). […] In mock-infected cultures, the increase over basal proliferation in the […] of recombinant SCF was never more than 40%, while proliferation of KSHV-infected DMVEC was increased by as much as 85%. During KS disease, an enhanced capacity of KSHV-infected endothelial cells to respond to SCF produced by adjacent endothelial cells, or by macrophages and mast cells infiltrating the KS lesion, would promote more rapid growth of virus infected cells.
# [3] = 5 μM Haloperidol for 1 hour prior to PMA addition
molecule,measurement,setting,value
Nc1nc2c(nc(N)n2[C@@H]2O[C@H](CO)[C@@H](O)[C@H]2O)c(=O)[nH]1 [8-aminoguanosine],"viral gene expression (K12, ORF 65)",ORF 65 (lytic gene); 10 μM 8-aminoguanosine,no effect
Nc1nc(O)c2ncn(COC(CO)CO)c2n1 [Ganciclovir],latent gene (K12) expression,"K12 (latent gene); compound 1 hour before PMA, 48 hours, concentration not given",did not interfere
same,late gene (ORF 65) expression,ORF 65 (lytic gene),inhibited
O=C(CCCN1CCC(O)(c2ccc(Cl)cc2)CC1)c1ccc(F)cc1 [Haloperidol],replication of Epstein-Barr Virus in tissue culture,Epstein-Barr Virus (EBV),inhibit
same,induction of the immediate early gene K3,immediate early gene K3,neither compound prevented induction
same,expression of the latent K12 gene,K12 (latent gene); [3],did not affect
same,ORF 65 expression,ORF 65 (lytic gene); [3],significantly reduced
same,completeness of inhibition of late gene expression compared with Ganciclovir,ORF 65 (lytic gene); 5 μM Haloperidol vs 25 μM Ganciclovir,more complete
same,late gene (ORF 65) expression,ORF 65 (lytic gene),inhibited
Cc1ccc(NC(=O)c2ccc(CN3CCN(C)CC3)cc2)cc1Nc1nccc(-c2cccnc2)n1 [STI 571],focus formation of KSHV-transformed DMVEC,"KSHV-infected DMVEC [1]; STI 571 0.01-10 μM, 5 days, organized monolayer re-established",inhibited
same,drug concentration at which the effect on the transformed phenotype was complete,KSHV-infected DMVEC [1]; dose-dependent,1 µM
same,proliferative response of KSHV-infected DMVEC to exogenous SCF,"KSHV-infected DMVEC [2]; 1 μM dose, SCF 50 ng/ml, XTT assay",completely inhibited
same,non-specific cytotoxicity (trypan blue exclusion),DMVEC,not due to non-specific cytotoxicity
same,effect on cell morphology or viability,Uninfected DMVEC,no effect
same,growth of SCLC cell lines in vitro,SCLC cell lines,inhibit
same,effect on capacity to proliferate in response to exogenous IL-2,human Jurkat T cell line,no effect
Ht-31: peptide derived from the PKA R-II binding domain of human thyroid AKAP; inhibits AKAP/PKA interactions (WKNVLQGGESTKERFENSNIGTA),induction of the immediate early gene K3,immediate early gene K3,neither compound prevented induction
same,level of K12 RNA,K12 (latent gene); 25 μM,without affecting
same,ORF 65 expression,"ORF 65 (lytic gene); 5 μM Ht-31, PMA induction",efficiently repressed
same,ORF 65 expression,"ORF 65 (lytic gene); 25 μM, PMA induction",inhibited; also recorded: efficiently repressed
same,late gene (ORF 65) expression,ORF 65 (lytic gene),inhibited
"SCF: recombinant stem cell factor, ligand of c-Kit",SCF concentration of maximal dose-dependent proliferation,KSHV-infected DMVEC [2]; KSHV-infected DMVEC,50 to 100 ng/mL
same,increase over basal proliferation in the absence of recombinant SCF,"KSHV-infected DMVEC [2]; KSHV-infected DMVEC, exogenous SCF 20-100 ng/ml",≤ 85%
same,SCF concentration of maximal dose-dependent proliferation,mock-infected DMVEC; mock-infected DMVEC,50 to 100 ng/mL
same,increase over basal proliferation in the absence of recombinant SCF,"mock-infected DMVEC; mock-infected cultures, exogenous SCF 20-100 ng/ml",≤ 40%

# — patent publication US20050100891A1, “Gene expression profile for KSHV infection and methods for treating same” (priority 2000, published 2005)
